As a reminder, the IC50 is the concentration that inhibits the measured activity by half. High values mean lower potency, low ones higher potency.

Among the data in patent US20240261367A1, “CYCLIC PEPTIDE IMMUNOMODULATORS” (priority 2021, published 2024) are IC50 values, retold here.

In this test the target is T1, PD-1/PD-L1 (Homo sapiens, UniProt Q9NZQ7).
T1 construct: TVMV protease site linker (C); made in house; host or cells: HEK293T cells
T1 sequence (Q9NZQ7 18-239): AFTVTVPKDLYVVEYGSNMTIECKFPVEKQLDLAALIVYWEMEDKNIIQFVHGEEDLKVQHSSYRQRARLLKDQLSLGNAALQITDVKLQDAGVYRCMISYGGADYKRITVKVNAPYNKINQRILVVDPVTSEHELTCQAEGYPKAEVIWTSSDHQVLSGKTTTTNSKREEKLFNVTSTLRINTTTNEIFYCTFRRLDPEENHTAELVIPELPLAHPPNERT
In words: PD-1/PD-L1 Homogenous Time-Resolved Fluorescence (HTRF) binding assay. The conditions noted are these: PD-L1-His (10 nM) pre-incubated with inhibitor 15 m, then PD-1-Ig (20 nM). The source says: Methods for Testing the Ability of Macrocyclic Peptides to Compete for the Binding of PD-1 to PD-L1 Using Homogenous Time-Resolved Fluorescence (HTRF) Binding Assays
The ability of the compounds of formula (I) to bind to PD-L1 was investigated using a PD-1/PD-L1 Homogenous Time-Resolved Fluorescence (HTRF) binding assay.
Homogenous Time-Resolved Fluorescence (HTRF) Binding Assay
The interaction of PD-1 and PD-L1 can be assessed using soluble, purified preparations of the extracellular domains of the two proteins. The PD-1 and PD-L1 protein extracellular domains were expressed as fusion proteins with detection tags, for PD-1, the tag was the Fc portion of Immunoglobulin (PD-1-Ig) and for PD-L1 it was the 6 histidine motif (PD-L1-His). All binding studies were performed in an HTRF assay buffer consisting of dPBS supplemented with 0.1% […] bovine serum albumin and 0.05% (v/v) Tween-20. […] HTRF detection was achieved using europium crypate-labeled anti-Ig (1 nM final) and allophycocyanin (APC) labeled anti-His (20 nM final). Antibodies were diluted in HTRF detection buffer and 5 μl was dispensed on top of the binding reaction. The reaction mixture was allowed to equilibrate for 30 minutes and the resulting signal (665 nm/620 nm ratio) was obtained using an EnVision fluorometer. Additional binding assays were established between the human proteins PD-1-Ig/PD-L2-His (20 & 5 nM, respectively) and CD80-His/PD-L1-Ig (100 & 10 nM, respectively).
Recombinant Proteins: Human PD-1 (25-167) with a C-terminal human Fc domain of immunoglobulin G (Ig) epitope tag [hPD-1 (25-167)-3S-IG] and human PD-L1 (18-239) with a C-terminal His epitope tag [hPD-L1(18-239)-TVMV-His] were expressed in HEK293T cells and purified sequentially by ProteinA affinity chromatography and size exclusion chromatography. Human PD-L2-His and CD80-His was obtained through commercial sources.
Table 1 lists the IC50 values for representative examples of this disclosure measured in the PD-1/PD-L1 Homogenous Time-Resolved Fluorescence (HTRF) binding assay.
In general terms: In TR-FRET formats the signal depends on donor and acceptor labels being close together.
As for `CCCC[C@H]1C(=O)N(C)[C@@H](CCCC)C(=O)N[C@@H](CC(C)C)C(=O)N[C@H](C(=O)NCC(=O)N[C@@H](Cc2cn(CCOCCOCCOCCOCCOCCOCCOCCOCCOCCOCCOCCNC(=O)CC[C@H](NC(=O)CCCCCCCCCCCCCCCCC(=O)O)C(=O)O)nn2)C(=O)OCC)CSCC(=O)N[C@@H](Cc2ccc(O)cc2)C(=O)N(C)[C@@H](C)C(=O)N[C@@H](CC(N)=O)C(=O)N2CCC[C@H]2C(=O)N[C@@H](CN)C(=O)N[C@@H](CC(C)C)C(=O)N2C[C@H](O)C[C@H]2C(=O)N[C@@H](Cc2c[nH]c3ccccc23)C(=O)N[C@@H](CCN)C(=O)N[C@@H](CC2=CC(CC(=O)O)c3ccccc32)C(=O)N1C` (stereo partly drawn) [Example 1025], the IC50 stood at 12 nM. Compound `CCCC[C@H]1C(=O)N(C)[C@@H](CCCC)C(=O)N[C@@H](CC(C)C)C(=O)N[C@H](C(=O)NCC(=O)N[C@@H](Cc2cn(CCOCCOCCOCCOCCOCCOCCOCCOCCOCCOCCOCCNC(=O)CC[C@H](NC(=O)CCCCCCCCCCCCCCCCC(=O)O)C(=O)OC)nn2)C(=O)O)CSCC(=O)N[C@@H](Cc2ccc(O)cc2)C(=O)N(C)[C@@H](C)C(=O)N[C@@H](CC(N)=O)C(=O)N2CCC[C@H]2C(=O)N[C@@H](CN)C(=O)N[C@@H](CC(C)C)C(=O)N2C[C@H](O)C[C@H]2C(=O)N[C@@H](Cc2c[nH]c3ccccc23)C(=O)N[C@@H](CCN)C(=O)N[C@@H](CC2=CC(CC(=O)O)c3ccccc32)C(=O)N1C` (stereo partly drawn) [Example 1026] showed an IC50 of 2.9 nM. In the case of `CCCC[C@H]1C(=O)N(C)[C@@H](CCCC)C(=O)N[C@@H](CC(C)C)C(=O)N[C@H](C(=O)NCC(=O)N[C@@H](Cc2cn(CCOCCOCCOCCOCCOCCOCCOCCOCCOCCOCCOCCNC(=O)CC[C@H](NC(=O)CCCCCCCCCCCCCCCCC(=O)O)C(=O)O)nn2)C(=O)O)CSCC(=O)N[C@@H](Cc2ccc(O)cc2)C(=O)N(C)[C@@H](C)C(=O)N[C@@H](CC(N)=O)C(=O)N2CCC[C@H]2C(=O)N[C@@H](CNC(=O)O[C@H]2CC[C@@]3(C)C(CC[C@H]4[C@@H]5CC[C@H]([C@H](C)CCCC(C)C)[C@@]5(C)CC[C@@H]43)C2)C(=O)N[C@@H](CC(C)C)C(=O)N2C[C@H](O)C[C@H]2C(=O)N[C@@H](Cc2c[nH]c3ccccc23)C(=O)N[C@@H](CC)C(=O)N[C@@H](CC2=CC(CC(=O)O)c3ccccc32)C(=O)N1C` (stereo partly drawn) [Example 1027] it was 110 nM. In the case of `CCCC[C@H]1C(=O)N(C)[C@@H](CCCC)C(=O)N[C@@H](CC(C)C)C(=O)N[C@H](C(=O)NCC(=O)N[C@@H](Cc2cn(CCOCCOCCOCCOCCOCCOCCOCCOCCOCCOCCOCCNC(=O)CC[C@H](NC(=O)CCCCCCCCCCCCCCCCC(=O)OC)C(=O)OC)nn2)C(=O)OC)CSCC(=O)N[C@@H](Cc2ccc(O)cc2)C(=O)N(C)[C@@H](C)C(=O)N[C@@H](CC(N)=O)C(=O)N2CCC[C@H]2C(=O)N[C@@H](CNC(=O)OC(C)(C)C)C(=O)N[C@@H](CC(C)C)C(=O)N2C[C@H](O)C[C@H]2C(=O)N[C@@H](Cc2c[nH]c3ccccc23)C(=O)N[C@@H](CCNC(=O)OC(C)(C)C)C(=O)N[C@@H](Cc2cn(CC(=O)OC)c3ccccc23)C(=O)N1C` [Example 2001] it was 170 nM; in that of `CCCC[C@H]1C(=O)N(C)[C@@H](CCCC)C(=O)N[C@@H](CC(C)C)C(=O)N[C@H](C(=O)NCC(=O)N[C@@H](Cc2cn(CCOCCOCCOCCOCCOCCOCCOCCOCCOCCOCCOCCNC(=O)CC[C@H](NC(=O)CCCCCCCCCCCCCCCCC(=O)O)C(=O)O)nn2)C(=O)OC)CSCC(=O)N[C@@H](Cc2ccc(O)cc2)C(=O)N(C)[C@@H](C)C(=O)N[C@@H](CC(N)=O)C(=O)N2CCC[C@H]2C(=O)N[C@@H](CN)C(=O)N[C@@H](CC(C)C)C(=O)N2C[C@H](O)C[C@H]2C(=O)N[C@@H](Cc2c[nH]c3ccccc23)C(=O)N[C@@H](CCN)C(=O)N[C@@H](Cc2cn(CC(=O)OC)c3ccccc23)C(=O)N1C` [Example 3001], 10 nM. In the case of `CCCC[C@H]1C(=O)N(C)[C@@H](CCCC)C(=O)N[C@@H](CC(C)C)C(=O)N[C@H](C(=O)NCC(=O)N[C@@H](Cc2cn(CCOCCOCCOCCOCCOCCOCCOCCOCCOCCOCCOCCNC(=O)CC[C@H](NC(=O)CCCCCCCCCCCCCCCCC(=O)O)C(=O)O)nn2)C(=O)OC)CSCC(=O)N[C@@H](Cc2ccc(O)cc2)C(=O)N(C)[C@@H](C)C(=O)N[C@@H](CC(N)=O)C(=O)N2CCC[C@H]2C(=O)N[C@@H](CN)C(=O)N[C@@H](CC(C)C)C(=O)N2C[C@H](O)C[C@H]2C(=O)N[C@@H](Cc2c[nH]c3ccccc23)C(=O)N[C@@H](CCN)C(=O)N[C@@H](Cc2cn(CC(=O)OC)c3ccccc23)C(=O)N1C` [Example 3002] it was 12 nM; in that of `CCCC[C@H]1C(=O)N(C)[C@@H](CCCC)C(=O)N[C@@H](CC(C)C)C(=O)N[C@H](C(=O)NCC(=O)N[C@@H](Cc2cn(CCOCCOCCOCCOCCOCCOCCOCCOCCOCCOCCOCCNC(=O)CC[C@H](NC(=O)CCCCCCCCCCCCCCCCC(=O)O)C(=O)OC)nn2)C(=O)O)CSCC(=O)N[C@@H](Cc2ccc(O)cc2)C(=O)N(C)[C@@H](C)C(=O)N[C@@H](CC(N)=O)C(=O)N2CCC[C@H]2C(=O)N[C@@H](CN)C(=O)N[C@@H](CC(C)C)C(=O)N2C[C@H](O)C[C@H]2C(=O)N[C@@H](Cc2c[nH]c3ccccc23)C(=O)N[C@@H](CCN)C(=O)N[C@@H](Cc2cn(CC(=O)OC)c3ccccc23)C(=O)N1C` [Example 3003], 9.3 nM; in that of `CCCC[C@H]1C(=O)N(C)[C@@H](CCCC)C(=O)N[C@@H](CC(C)C)C(=O)N[C@H](C(=O)NCC(=O)N[C@@H](Cc2cn(CCOCCOCCOCCOCCOCCOCCOCCOCCOCCOCCOCCNC(=O)CC[C@H](NC(=O)CCCCCCCCCCCCCCCCC(=O)O)C(=O)OC)nn2)C(=O)OC)CSCC(=O)N[C@@H](Cc2ccc(O)cc2)C(=O)N(C)[C@@H](C)C(=O)N[C@@H](CC(N)=O)C(=O)N2CCC[C@H]2C(=O)N[C@@H](CN)C(=O)N[C@@H](CC(C)C)C(=O)N2C[C@H](O)C[C@H]2C(=O)N[C@@H](Cc2c[nH]c3ccccc23)C(=O)N[C@@H](CCN)C(=O)N[C@@H](Cc2cn(CC(=O)OC)c3ccccc23)C(=O)N1C` [Example 3004], 21 nM. For `CCCC[C@H]1C(=O)N(C)[C@@H](CCCC)C(=O)N[C@@H](CC(C)C)C(=O)N[C@H](C(=O)NCC(=O)N[C@@H](Cc2cn(CCOCCOCCOCCOCCOCCOCCOCCOCCOCCOCCOCCNC(=O)CC[C@H](NC(=O)CCCCCCCCCCCCCCCCC(=O)O)C(=O)O)nn2)C(=O)O)CSCC(=O)N[C@@H](Cc2ccc(O)cc2)C(=O)N(C)[C@@H](C)C(=O)N[C@@H](CC(N)=O)C(=O)N2CCC[C@H]2C(=O)N[C@@H](CN)C(=O)N[C@@H](CC(C)C)C(=O)N2C[C@H](O)C[C@H]2C(=O)N[C@@H](Cc2c[nH]c3ccccc23)C(=O)N[C@@H](CCNC(=O)OC)C(=O)N[C@@H](Cc2cn(CC(=O)O)c3ccccc23)C(=O)N1C` [Example 5001], the IC50 is 0.58 nM. `CCCC[C@H]1C(=O)N(C)[C@@H](CCCC)C(=O)N[C@@H](CC(C)C)C(=O)N[C@H](C(=O)NCC(=O)N[C@@H](Cc2cn(CCOCCOCCOCCOCCOCCOCCOCCOCCOCCOCCOCCNC(=O)CC[C@H](NC(=O)CCCCCCCCCCCCCCCCC(=O)O)C(=O)O)nn2)C(=O)OC)CSCC(=O)N[C@@H](Cc2ccc(O)cc2)C(=O)N(C)[C@@H](C)C(=O)N[C@@H](CC(N)=O)C(=O)N2CCC[C@H]2C(=O)N[C@@H](CN)C(=O)N[C@@H](CC(C)C)C(=O)N2C[C@H](O)C[C@H]2C(=O)N[C@@H](Cc2c[nH]c3ccccc23)C(=O)N[C@@H](CCN)C(=O)N[C@@H](Cc2cn(CC(=O)O)c3ccccc23)C(=O)N1C` [Example 6003] came in with an IC50 of 5.5 nM.

As for `CCCC[C@H]1C(=O)N(C)[C@@H](CCCC)C(=O)N[C@@H](CC(C)C)C(=O)N[C@H](C(=O)NCC(=O)N[C@@H](Cc2cn(CCOCCOCCOCCOCCOCCOCCOCCOCCOCCOCCOCCNC(=O)CC[C@H](NC(=O)CCCCCCCCCCCCCCCCC(=O)OC)C(=O)O)nn2)C(=O)O)CSCC(=O)N[C@@H](Cc2ccc(O)cc2)C(=O)N(C)[C@@H](C)C(=O)N[C@@H](CC(N)=O)C(=O)N2CCC[C@H]2C(=O)N[C@@H](CNC(=O)OCC)C(=O)N[C@@H](CC(C)C)C(=O)N2C[C@H](O)C[C@H]2C(=O)N[C@@H](Cc2c[nH]c3ccccc23)C(=O)N[C@@H](CCN)C(=O)N[C@@H](Cc2cn(CC(=O)O)c3ccccc23)C(=O)N1C` [Example 7001], the IC50 worked out at 53 nM. In the case of `CCCC[C@H]1C(=O)N(C)[C@@H](CCCC)C(=O)N[C@@H](CC(C)C)C(=O)N[C@H](C(=O)NCC(=O)N[C@@H](Cc2cn(CCOCCOCCOCCOCCOCCOCCOCCOCCOCCOCCOCCNC(=O)CC[C@H](NC(=O)CCCCCCCCCCCCCCCCC(=O)OC)C(=O)O)nn2)C(=O)O)CSCC(=O)N[C@@H](Cc2ccc(O)cc2)C(=O)N(C)[C@@H](C)C(=O)N[C@@H](CC(N)=O)C(=O)N2CCC[C@H]2C(=O)N[C@@H](CNC(=O)OCc2oc(=O)oc2C)C(=O)N[C@@H](CC(C)C)C(=O)N2C[C@H](O)C[C@H]2C(=O)N[C@@H](Cc2c[nH]c3ccccc23)C(=O)N[C@@H](CCN)C(=O)N[C@@H](Cc2cn(CC(=O)O)c3ccccc23)C(=O)N1C` [Example 7003] it was 7.4 nM.
